Reference: patent publication US20230303570A1, “KINASE INHIBITORS AND USES THEREOF” (ABM Therapeutics Corporation, priority 2020, published 2023)

These compounds were tested against HPK1 (MAP4K1) (Homo sapiens, UniProt Q92918) (assay: HPK1 (MAP4K1) kinase Lantha screen assay).
Type: biochemical
Method: The effect of the compounds on the activity of HPK1 (MAP4K1) kinase were assessed by Lantha screen assay. • 1. 1×kinase buffer was prepared (50 mM HEPES, pH 7.5, 10 mM MgCl2, 4 mM DT • 2. Compound and assay plates preparation: • 2-1) The compound was diluted to 100× of the final desired highest inhibitor concentration in reaction by 100% DMSO. For example, if a compound was tested at […], then a solution at 500 µM in DMSO was prepared in this step. • 2-2) For each tested compound, the compound was transferred in tubes to one well on a 96-well storage plate and serially diluted by transferring […] of 100% DMSO in the next well and so forth for a total of 6 concentrations. • 2-3) 100 μl of 100% DMSO were added to two empty wells to serve as no compound control and no enzyme control in the same 96-well plate. The resulting plate was labeled as the source plate. • 2-4) 40 μl of compound from source plate were transferred to a new 384-well Echo plate as the intermediate plate. 100 nl of each well from the 384-well Echo plate were transferred to a 384-well assay plate in duplicates. For example, A1 of the 384-well Echo plate was transferred to A1 and A2 of the 384-well plate. A2 of the 384-well Echo plate was transferred to A3 and A4 of the 384-well plate, and so on; • 3. Kinase reaction: a solution of MAP4K1 in 1× kinase buffer at 2-fold the final concentration of each reagent in the assay was prepared. 5 μl of kinase solution was added to each well of the assay plate, except for control wells without enzyme (add 5 μl of 1× kinase buffer instead). The plate was then shaken, then incubated at room temperature for 10 min. A substrate solution of Fluorescein-PKC and ATP in 1× kinase reaction buffer at 2-fold of the final concentration of each reagent desired in the assay was prepared. 5 μl of substrate solution was added to each well of the assay plate to start reaction. The plate was shaken, then covered, and incubated at room temperature for 90 minutes.
Kinase detection: detection solution of 2-fold of final concentration in Antibody Dilution Buffer was prepared. 10 μl of detection solution was added to each well of the assay plate to stop the reaction. The mixtures were mixed briefly with Centrifuge and incubated at room temperature 60 minutes before reading on a plate reader for fluorescence. Data was collected on Envision with excitation at 340 nm and emission at 520 nm and 495 nm.

Sequence of HPK1 (MAP4K1) (Q92918 whole entry, species assumed): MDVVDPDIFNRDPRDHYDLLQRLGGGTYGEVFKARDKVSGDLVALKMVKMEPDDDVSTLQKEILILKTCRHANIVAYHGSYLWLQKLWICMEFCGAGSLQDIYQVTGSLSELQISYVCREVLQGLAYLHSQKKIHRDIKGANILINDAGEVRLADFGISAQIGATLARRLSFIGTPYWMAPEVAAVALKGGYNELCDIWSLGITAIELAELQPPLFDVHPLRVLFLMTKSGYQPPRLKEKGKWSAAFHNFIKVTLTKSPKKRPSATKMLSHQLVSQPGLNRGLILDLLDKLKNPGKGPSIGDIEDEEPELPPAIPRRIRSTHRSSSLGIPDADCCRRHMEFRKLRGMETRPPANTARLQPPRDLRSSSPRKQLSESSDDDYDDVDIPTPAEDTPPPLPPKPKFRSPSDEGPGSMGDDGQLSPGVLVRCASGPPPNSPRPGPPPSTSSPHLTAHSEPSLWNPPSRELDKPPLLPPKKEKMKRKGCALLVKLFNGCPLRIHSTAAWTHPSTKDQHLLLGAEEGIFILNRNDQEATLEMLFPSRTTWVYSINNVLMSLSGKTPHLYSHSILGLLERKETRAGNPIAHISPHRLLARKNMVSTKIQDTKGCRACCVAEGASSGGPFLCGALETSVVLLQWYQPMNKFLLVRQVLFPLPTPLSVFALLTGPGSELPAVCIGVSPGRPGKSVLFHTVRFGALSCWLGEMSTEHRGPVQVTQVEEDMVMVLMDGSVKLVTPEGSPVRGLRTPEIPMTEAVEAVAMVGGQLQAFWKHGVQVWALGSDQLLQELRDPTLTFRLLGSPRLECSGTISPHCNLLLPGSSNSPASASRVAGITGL

IC50 | Structure (SMILES)
100 to 10000 nM | Clc1ccccc1C1=Cc2cnc(Nc3ccc(N4CCOCC4)nc3)nc2N2CCN=C12 [Compound 100, 6-(2-chlorophenyl)-N-(6-morpholinopyridin-3-yl)-8,9-dihydroimidazo[1′,2′:1,6]pyrido[2,3-d]pyrimidin-2-amine]
100 to 10000 nM | Cc1ccc(Nc2ncc3c(n2)N2CCN=C2C(c2ccccc2Cl)=C3)cn1 [Compound 101, 6-(2-chlorophenyl)-N-(6-methylpyridin-3-yl)-8,9-dihydroimidazo[1′,2′:1,6]pyrido[2,3-d]pyrimidin-2-amine]
100 to 10000 nM | CNc1ncc2c(n1)N1CCCN=C1C(c1cc(NC(=O)c3cc(C(F)(F)F)ccn3)ccc1C)=C2 [Compound 105, N-(4-methyl-3-(2-(methylamino)-9,10-dihydro-8H-pyrido[1,6-a:2,3-d′]dipyrimidin-6-yl)phenyl)-4-(trifluoromethyl)picolinamide]
100 to 10000 nM | COCCNc1ncc2c(n1)N1CCN=C1C(c1cc(NC(=O)c3cc(C(F)(F)F)ccn3)ccc1C)=C2 [Compound 112, N-(3-(2-((2-methoxyethyl)amino)-8,9-dihydroimidazo[1′,2′:1,6]pyrido[2,3-d]pyrimidin-6-yl)-4-methylphenyl)-4-(trifluoromethyl)picolinamide]
< 100 nM | Cc1ccc(NC(=O)c2cc(C(F)(F)F)ccn2)cc1C1=Cc2cnc(NCC(C)(C)O)nc2N2CCN=C12 [Compound 113, N-(3-(2-((2-hydroxy-2-methylpropyl)amino)-8,9-dihydroimidazo[1′,2′:1,6]pyrido[2,3-d]pyrimidin-6-yl)-4-methylphenyl)-4-(trifluoromethyl)picolinamide]
< 100 nM | Cc1ccc(NC(=O)c2cc(C(F)(F)F)ccn2)cc1C1=Cc2cnc(NC3COC3)nc2N2CCN=C12 [Compound 114, N-(4-methyl-3-(2-(oxetan-3-ylamino)-8,9-dihydroimidazo[1′,2′:1,6]pyrido[2,3-d]pyrimidin-6-yl)phenyl)-4-(trifluoromethyl)picolinamide]
100 to 10000 nM | Cc1ccc(NC(=O)c2cc(C(F)(F)F)ccn2)cc1C1=Cc2cnc(NC3CNC3)nc2N2CCN=C12 [Compound 116, N-(3-(2-(azetidin-3-ylamino)-8,9-dihydroimidazo[1′,2′:1,6]pyrido[2,3-d]pyrimidin-6-yl)-4-methylphenyl)-4-(trifluoromethyl)picolinamide]
> 10000 nM | Cc1ccc(NC(=O)c2cc(C(F)(F)F)ccn2)cc1C1=Cc2cnc(NS(C)(=O)=O)nc2N2CCN=C12 [Compound 117, N-(4-methyl-3-(2-(methylsulfonamido)-8,9-dihydroimidazo[1′,2′:1,6]pyrido[2,3-d]pyrimidin-6-yl)phenyl)-4-(trifluoromethyl)picolinamide]
100 to 10000 nM | CC(=O)Nc1ncc2c(n1)N1CCN=C1C(c1cc(NC(=O)c3cc(C(F)(F)F)ccn3)ccc1C)=C2 [Compound 118, N-(3-(2-acetamido-8,9-dihydroimidazo[1′,2′:1,6]pyrido[2,3-d]pyrimidin-6-yl)-4-methylphenyl)-4-(trifluoromethyl)picolinamide]
> 10000 nM | CNc1nc(C)c2c(n1)N1CCN=C1C(c1cc(NC(=O)c3cc(C(F)(F)F)ccn3)ccc1Cl)=C2 [Compound 123, N-(4-chloro-3-(4-methyl-2-(methylamino)-8,9-dihydroimidazo[1′,2′:1,6]pyrido[2,3-d]pyrimidin-6-yl)phenyl)-4-(trifluoromethyl)picolinamide]
100 to 10000 nM | CNc1ncc2c(n1)N1CCN=C1C(c1cc(NC(=O)c3cc(C(F)(F)F)ccn3)ccc1C)=N2 [Compound 124, N-(4-methyl-3-(2-(methylamino)-8,9-dihydroimidazo[2,1-h]pteridin-6-yl)phenyl)-4-(trifluoromethyl)picolinamide]
100 to 10000 nM | CNc1ncc2c(n1)N1C[C@H](C)N=C1C(c1cc(NC(=O)c3cc(C(F)(F)F)ccn3)ccc1C)=C2 [Compound 126, (S)—N-(4-methyl-3-(8-methyl-2-(methylamino)-8,9-dihydroimidazo[1′,2′:1,6]pyrido[2,3-d]pyrimidin-6-yl)phenyl)-4-(trifluoromethyl)picolinamide]
100 to 10000 nM | CNc1ncc2c(n1)N1C[C@@H](C)N=C1C(c1cc(NC(=O)c3cc(C(F)(F)F)ccn3)ccc1C)=C2 [Compound 127, (R)—N-(4-methyl-3-(8-methyl-2-(methylamino)-8,9-dihydroimidazo[1′,2′:1,6]pyrido[2,3-d]pyrimidin-6-yl)phenyl)-4-(trifluoromethyl)picolinamide]
< 100 nM | CNc1ncc2c(n1)N1C(=NCC13CCCC3)C(c1cc(NC(=O)c3cc(C(F)(F)F)ccn3)ccc1C)=C2 [Compound 131, N-(4-methyl-3-(2′-(methylamino)-8′H-spiro[cyclopentane-1,9′-imidazo[1′,2′:1,6]pyrido[2,3-d]pyrimidin]-6′-yl)phenyl)-4-(trifluoromethyl)picolinamide]
100 to 10000 nM | CNc1cc2c(cn1)C=C(c1cc(NC(=O)c3cc(C(F)(F)F)ccn3)ccc1C)C1=NCCN12 [Compound 132, N-(4-methyl-3-(8-(methylamino)-1,2-dihydroimidazo[1,2-a][1,6]naphthyridin-4-yl)phenyl)-4-(trifluoromethyl)picolinamide]
< 100 nM | CNc1ncc2c(n1)N1CCN=C1C(c1cc(NC(=O)c3cc(C(F)(F)F)ccn3)c(Cl)cc1C)=C2 [Compound 133, N-(2-chloro-4-methyl-5-(2-(methylamino)-8,9-dihydroimidazo[1′,2′:1,6]pyrido[2,3-d]pyrimidin-6-yl)phenyl)-4-(trifluoromethyl)picolinamide]
< 100 nM | O=C(Nc1ccc(Cl)c(C2=Cc3cnc(NC4COC4)nc3N3CCN=C23)c1)c1cc(C(F)(F)F)ccn1 [Compound 137, N-(4-chloro-3-(2-(oxetan-3-ylamino)-8,9-dihydroimidazo[1′,2′:1,6]pyrido[2,3-d]pyrimidin-6-yl)phenyl)-4-(trifluoromethyl)picolinamide]
< 100 nM | O=C(Nc1ccc(Cl)c(C2=Cc3cnc(NC4CCOCC4)nc3N3CCN=C23)c1)c1cc(C(F)(F)F)ccn1 [Compound 138, N-(4-chloro-3-(2-((tetrahydro-2H-pyran-4-yl)amino)-8,9-dihydroimidazo[1′,2′:1,6]pyrido[2,3-d]pyrimidin-6-yl)phenyl)-4-(trifluoromethyl)picolinamide]
< 100 nM | CNc1ncc2c(n1)N1CCN=C1C(c1cc(NC(=O)c3cc(C(F)(F)F)ccn3)c(F)cc1C)=C2 [Compound 139, N-(2-fluoro-4-methyl-5-(2-(methylamino)-8,9-dihydroimidazo[1′,2′:1,6]pyrido[2,3-d]pyrimidin-6-yl)phenyl)-4-(trifluoromethyl)picolinamide]
100 to 10000 nM | CNc1ncc2c(n1)N1CCN=C1C(c1cc(NC(=O)c3ccnc(C(F)(F)F)c3)ccc1C)=C2 [Compound 145, N-(4-methyl-3-(2-(methylamino)-8,9-dihydroimidazo[1′,2′:1,6]pyrido[2,3-d]pyrimidin-6-yl)phenyl)-2-(trifluoromethyl)isonicotinamide]
> 10000 nM | CNc1ncc2c(n1)N1CCN=C1C(c1cc(NC(=O)c3cncc(C(F)(F)F)n3)ccc1C)=C2 [Compound 146, N-(4-methyl-3-(2-(methylamino)-8,9-dihydroimidazo[1′,2′:1,6]pyrido[2,3-d]pyrimidin-6-yl)phenyl)-6-(trifluoromethyl)pyrazine-2-carboxamide]
> 10000 nM | CNc1ncc2c(n1)N1CCN=C1C(c1cc(NC(=O)c3ccnc(C(F)(F)F)n3)ccc1C)=C2 [Compound 147, N-(4-methyl-3-(2-(methylamino)-8,9-dihydroimidazo[1′,2′:1,6]pyrido[2,3-d]pyrimidin-6-yl)phenyl)-2-(trifluoromethyl)pyrimidine-4-carboxamide]
100 to 10000 nM | CNc1ncc2c(n1)N1CCN=C1C(c1cc(NC(=O)c3nccc(C(F)(F)F)n3)ccc1C)=C2 [Compound 148, N-(4-methyl-3-(2-(methylamino)-8,9-dihydroimidazo[1′,2′:1,6]pyrido[2,3-d]pyrimidin-6-yl)phenyl)-4-(trifluoromethyl)pyrimidine-2-carboxamide]
> 10000 nM | CNc1ncc2c(n1)N1CCN=C1C(c1cc(NC(=O)c3cnnc(C(F)(F)F)c3)ccc1C)=C2 [Compound 150, N-(4-methyl-3-(2-(methylamino)-8,9-dihydroimidazo[1′,2′:1,6]pyrido[2,3-d]pyrimidin-6-yl)phenyl)-6-(trifluoromethyl)pyridazine-4-carboxamide]
100 to 10000 nM | CNc1ncc2c(n1)N1CCN=C1C(c1cc(NC(=O)c3cc(C(F)(F)F)ncn3)ccc1C)=C2 [Compound 151, N-(4-methyl-3-(2-(methylamino)-8,9-dihydroimidazo[1′,2′:1,6]pyrido[2,3-d]pyrimidin-6-yl)phenyl)-6-(trifluoromethyl)pyrimidine-4-carboxamide]
